Legend:
[1] = system: serum CEA; test: Serum CEA ELISA; type: in vivo, human; settings: asthmatics on inhaled corticosteroids (N = 51) vs No ICS (N = 49)
Description: Serum IgE was measured by UCSF clinical laboratories or by ELISA using a human serum IgE ELISA kit according to manufacturer's instructions (Bethyl Laboratories). Serum CEA was measured using a human serum CEA ELISA kit according to manufacturer's instructions (Alpco Diagnostics). We developed an electrochemiluminescent assay (ECLA) to measure serum periostin using anti-periostin antibodies (R&D systems). Briefly, monoclonal anti-periostin was coated onto plates at 1.5 micrograms/ml in sodium carbonate buffer, pH 9.6 overnight at 4° C. Plates were blocked in assay buffer (1×PBS pH 7.4, 0.35 M NaCl, 0.5% BSA, 0.05% Tween 20, 0.25% CHAPS, 5 mM EDTA, 15PPM Proclin)+3% BSA for 2 hours at room temperature, then washed 4× with TBST (Tris-buffered saline+0.1% Tween-20). Serum was diluted 1:5 in assay buffer and incubated with agitation at room temperature for 2 h, then washed 4× with TBST. Recombinant periostin (R&D Systems) was used to establish a standard range. […] Reading buffer (Meso Scale Devices) was added and electrochemiluminescence was read (Meso Scale Devices). […] In addition, we measured IgE and YKL-40, a serum marker previously described to be elevated in some asthmatics, in these same sera. […]

[2] = system: serum YKL-40; test: Serum YKL-40 immunoassay; type: in vivo, human; settings: asthmatics on inhaled corticosteroids (N = 51) vs No ICS (N = 49)
Source text: To determine whether elevated levels of soluble periostin and CEA proteins were detectable in peripheral blood, we examined periostin and CEA in sera from 100 asthmatics and 48 healthy controls using immunoassays. In addition, we measured IgE and YKL-40, a serum marker previously described to be elevated in some asthmatics, in these same sera. […] However, in all cases, there was substantial overlap in serum levels of each biomarker between groups. As shown in Example 8, inhaled corticosteroid (ICS) treatment reduces the bronchial epithelial expression of periostin in asthmatics that have elevated periostin at baseline (see also [8]). Of the 100 asthmatics whose serum we examined, 51 were taking inhaled corticosteroids (ICS) and 49 were not. […] Nevertheless, asthmatics on ICS had higher median serum levels of IgE, periostin, and CEA than healthy controls (Table 13). As shown in FIG. 4 and Table 10, 21/23 asthmatics positive for the bronchial epithelial IL-13 signature (“IL-13 high”) had serum IgE levels greater than 100 IU/ml, although a proportion of “IL-13 low” asthmatics also had elevated IgE. […] As airway expression levels of periostin and CEACAM5 were highly correlated in “IL-13 high” asthmatics, we examined the correlation between serum periostin and CEA across all asthmatics (FIG. 13L).

`CCC(=O)O[C@]1(C(=O)SCF)[C@H](C)C[C@H]2[C@@H]3C[C@H](F)C4=CC(=O)C=C[C@]4(C)[C@@]3(F)[C@@H](O)C[C@@]21C` [fluticasone, fluticasone propionate] was tested, and the “CEA, level of serum biomarker, median (range)” value [1] was 1.9 (<0.2-21*) ng/ml and the “YKL-49, level of serum biomarker, median (range)” value [2] was 72 (24-494) ng/ml.

Source: patent US20110123530A1, “COMPOSITIONS AND METHODS FOR TREATING AND DIAGNOSING ASTHMA” (priority 2008, published 2011)
